Where two headings read alike, the source gives them in different places.
Biological target: T1, HDAC2 Human recombinant C-terminal FLAG-tag (Homo sapiens, UniProt Q92769)
T1 construct: FLAG (C); purchased BPS Bioscience 50052
Test: Measurement of HDAC2 enzyme inhibitory activity (HTRF)
Assay type: biochemical
Settings: recombinant HDAC2, H3K9ac peptide
Procedure: Test Example 1: Measurement of HDAC2 Enzyme Inhibitory Activity
The HDAC2 enzyme inhibitory activity was measured by the method described in the following test example.
To each well of a 384-well plate (Corning, 4514), DMSO solution of the test compound was dispensed at 50 nL/well from a final concentration of 99 μM to 8 points (n=2) in the 3-fold dilution series using Echo555 (Beckman Coulter). 2.5 μl of 0.005 mg/mL recombinant enzyme HDAC2 (HDAC2 Human recombinant C-terminal FLAG-tag, BPS Bioscience, 50052) was added to each well, 2.5 μl of 0.6 μM H3K9ac peptide (Lys(Ac)9-Histone H3 (1-21)-GGK(Biotin), AnaSpec, 64361) was added, mixed, and reacted in a wet box at room temperature for 3 hours. 50 mM Tris HCL pH8.0, 137 mM sodium chloride, 2.7 mM potassium chloride, 1 mM magnesium chloride, 0.01% Tween20, and 0.1% BSA which were diluted with ultrapure water were used as a reaction buffer at this time. After the reaction, 5 μL of 10 μM SAHA (suberoylanilide hydroxamic acid) as a reaction terminator and the 5 μL of a mixture of 2.5 ng of H3K9me0 antibody (ActiveMotif, 61399) labeled in-house with europium cryptate (Cisbio, 65EUSABA) and 125 nM streptavidin-XL665 (Cisbio, 610SAXLA) as an HTRF (time-resolved fluorescence) reagent were added to each well, mixed, and allowed to stand in a wet box at room temperature for reaction. A detection buffer used at this time was 50 mM Tris HCL pH 8.0, 0.8 M potassium fluoride, and 0.1% BSA which were diluted with ultrapure water. After reacting for 2 hours or more, HTRF was measured using a multi-plate reader such as SpectraMax Paradigm (MOLECULAR DEVICE) or RUBYstar (BMG LABTECH). Ratio (665 nm/615-620 nm×10000) was calculated from the fluorescence values of two wavelengths, 615-620 nm and 665 nm, which were excited at 320-340 nm, and the energy transition was obtained.

[1] = 3 hours room temperature, read-out: HDAC2 IC50

T1 sequence (Q92769 whole entry): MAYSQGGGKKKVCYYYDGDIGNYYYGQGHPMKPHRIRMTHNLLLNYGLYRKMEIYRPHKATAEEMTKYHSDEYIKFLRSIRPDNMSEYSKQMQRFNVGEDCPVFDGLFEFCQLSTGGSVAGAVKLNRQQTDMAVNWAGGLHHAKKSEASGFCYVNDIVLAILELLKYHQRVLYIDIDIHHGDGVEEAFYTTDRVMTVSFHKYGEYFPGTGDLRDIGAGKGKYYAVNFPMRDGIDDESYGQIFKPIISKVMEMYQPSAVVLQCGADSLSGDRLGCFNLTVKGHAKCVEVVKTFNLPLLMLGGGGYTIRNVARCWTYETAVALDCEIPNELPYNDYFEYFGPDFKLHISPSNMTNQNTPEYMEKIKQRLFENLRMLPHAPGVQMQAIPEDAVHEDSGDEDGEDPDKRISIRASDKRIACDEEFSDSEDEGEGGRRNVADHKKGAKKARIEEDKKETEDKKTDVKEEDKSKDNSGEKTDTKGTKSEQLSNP

IC50 [1] [nM] | IC50 (read-out: IC50 (HDAC2)) [nM] | SMILES
200 |  | CCOc1ccc(C(=O)Nc2cc(-c3cnn(C)c3)ccc2N)nc1 [Compound I-165]
290 |  | Nc1ccc(-c2cncs2)cc1NC(=O)c1noc2ccccc12 [Compound I-195]
310 |  | CC(C)Nc1cnc(C(=O)Nc2cc(-n3ccc(F)c3)ccc2N)cn1 [Compound I-301]
270 |  | Nc1ccc(-c2ccc(F)nc2)cc1NC(=O)c1ccc(Cl)nn1 [Compound I-264]
130 |  | CCOc1ccc(C(=O)Nc2cc(-c3ccc(F)nc3)ccc2N)nn1 [Compound I-268]
450 |  | CN(C)c1ccc(C(=O)Nc2nc(-n3cccc3)ccc2N)nc1 [Compound I-226]
70 |  | Cn1cc(-c2ccc(N)c(NC(=O)c3cnc(NCc4ccccn4)cn3)c2)cn1 [Compound I-294]
410 |  | Cn1cc(-c2ccc(N)c(NC(=O)c3cc4c(cn3)OCCC4)c2)cn1 [Compound I-255]
230 |  | CC(C)Nc1ccc(C(=O)Nc2cc(-c3ccc(F)nc3)ccc2N)nn1 [Compound I-273]
240 |  | Cn1cc(-c2ccc(N)c(NC(=O)c3cc4c(cn3)OCCO4)c2)cn1 [Compound I-098]
63 |  | Cn1cc(-c2ccc(C(=O)Nc3cc(-c4ccc(F)nc4)ccc3N)nc2)nn1 [Compound I-040]
80 |  | Nc1ccc(-n2ccc(F)c2)cc1NC(=O)c1cnc(NCc2ccccn2)cn1 [Compound I-302]
120 |  | Cn1cc(-c2cnc(C(=O)Nc3cc(-c4ccco4)ccc3N)cn2)cn1 [Compound I-008]
180 |  | Nc1ccc(-c2ccc(F)nc2)cc1NC(=O)c1cnc(-n2cncn2)cn1 [Compound I-128]
70 |  | Cn1cc(-c2ccc(N)c(NC(=O)c3cnc(N4CCCOCC4)cn3)c2)cn1 [Compound I-296]
120 |  | Nc1ccc(-c2cncs2)cc1NC(=O)c1cc2c(cn1)OCCO2 [Compound I-073]
48 |  | Nc1ccc(-c2ccc(F)nc2)cc1NC(=O)c1ccc2c(n1)OCO2 [Compound I-183]
310 |  | Cn1cc(-c2ccc(C(=O)Nc3cc(-c4ccon4)ccc3N)nc2)cn1 [Compound I-084]
260 |  | Cn1cc(-c2ccc(N)c(NC(=O)c3ccc(C(C)(C)C)cn3)c2)cn1 [Compound I-201]
180 |  | CCOc1ccc(C(=O)Nc2cc(-c3cnn(C)c3)ccc2N)nn1 [Compound I-269]
150 |  | COCc1ccc(C(=O)Nc2cc(-c3ccc(F)nc3)ccc2N)nc1 [Compound I-208]

IC50 [1] [nM] | IC50 (read-out: IC50 (HDAC2)) [nM] | SMILES
220 |  | CC(=O)N(C)c1cnc(C(=O)Nc2cc(-c3ccc(F)nc3)ccc2N)cn1 [Compound I-248]
90 |  | Nc1ccc(-c2ccc(F)nc2)cc1NC(=O)c1ccc(N2CCCC2)nn1 [Compound I-271]
140 |  | Cc1cnc(C(=O)Nc2cc(-c3ccc(F)nc3)ccc2N)cn1 [Compound I-123]
79 |  | CN(C)c1ccc(C(=O)Nc2cc(-c3ccc(F)nc3)ccc2N)nc1 [Compound I-176]
40 |  | CC(C)Nc1cnc(C(=O)Nc2cc(-c3ccc(F)nc3)ccc2N)cn1 [Compound I-242]
220 |  | Nc1ccc(-c2cncs2)cc1NC(=O)c1ccc(OC(F)(F)F)cn1 [Compound I-021]
280 |  | Nc1ccc(-c2cncs2)cc1NC(=O)c1ccc2[nH]ccc2n1 [Compound I-081]
50 |  | Nc1ccc(-c2ccc(F)nc2)cc1NC(=O)c1cnc(N2CCC2)cn1 [Compound I-221]
160 |  | Cn1cc(-c2cnc(C(=O)Nc3cc(-c4cccs4)ccc3N)c(F)c2)cn1 [Compound I-016]
160 |  | CCN(C)c1cnc(C(=O)Nc2cc(-c3cnn(C)c3)ccc2N)cn1 [Compound I-237]
850 |  | COCCOc1cnc(C(=O)Nc2nc(-c3ccccc3)ccc2N)cn1 [Compound I-231]
47 |  | Nc1ccc(-c2cncs2)cc1NC(=O)c1cc2ccncc2cn1 [Compound I-060]
50 |  | Nc1ccc(-c2ccc(F)nc2)cc1NC(=O)c1cnc(N2Cc3cccnc3C2)cn1 [Compound I-279]
140 |  | CC(C)c1ccc(C(=O)Nc2cc(-c3ccc(F)nc3)ccc2N)nc1 [Compound I-181]
70 |  | Nc1ccc(-c2ccc(F)nc2)cc1NC(=O)c1cnc(N2CCC23COC3)cn1 [Compound I-236]
70 |  | Nc1ccc(-c2ccc(F)nc2)cc1NC(=O)c1cnc(NC2CCOCC2)cn1 [Compound I-286]
320 |  | COCCOc1cnc(C(=O)Nc2nc(-n3cccc3)ccc2N)cn1 [Compound I-232]
370 |  | Cn1cc(-c2ccc(C(=O)Nc3nc(-n4cccc4)ccc3N)nc2)cn1 [Compound I-025]
100 |  | Cn1cc(-c2ccc(N)c(NC(=O)c3cnc(N4Cc5cccnc5C4)cn3)c2)cn1 [Compound I-297]
60 |  | CN(C)c1cnc(C(=O)Nc2cc(-c3cncs3)ccc2N)cn1 [Compound I-205]
330 |  | Nc1ccc(-c2cncs2)cc1NC(=O)c1ccc2nccn2n1 [Compound I-065]

IC50 [1] [nM] | IC50 (read-out: IC50 (HDAC2)) [nM] | SMILES
870 |  | COc1cnc(C(=O)Nc2cc(-c3cnn(C)c3)ccc2N)nc1 [Compound I-258]
90 |  | Nc1ccc(-c2ccc(F)nc2)cc1NC(=O)c1cnc(N2CC3(CCC3)C2)cn1 [Compound I-223]
440 |  | Nc1ccc(-c2ccc(F)nc2)cc1NC(=O)c1cccnn1 [Compound I-115]
310 |  | Cn1cc(-c2ccc(N)c(NC(=O)c3cnc(OC4CCOCC4)cn3)c2)cn1 [Compound I-291]
170 |  | Nc1ccc(-c2ccc(F)nc2)cc1NC(=O)c1cnc(OC2CCOCC2)cn1 [Compound I-287]
280 |  | Cn1cc(-c2ccc(C(=O)Nc3nc(-c4cccs4)ccc3N)nc2)nn1 [Compound I-034]
30 |  | Cn1cc(-c2ccc(C(=O)Nc3cc(-c4cncs4)ccc3N)nc2)nn1 [Compound I-047]
110 |  | Nc1ccc(-c2ccc(F)nc2)cc1NC(=O)c1ccc(C2COC2)cn1 [Compound I-246]
200 |  | Cc1cnc(C(=O)Nc2cc(-c3cnn(C)c3)ccc2N)cn1 [Compound I-138]
180 |  | Nc1ccc(-c2ccc(F)nc2)cc1NC(=O)c1cnc2[nH]ccc2n1 [Compound I-086]
470 |  | CC(=O)N(C)c1cnc(C(=O)Nc2cc(-c3cnn(C)c3)ccc2N)cn1 [Compound I-244]
120 |  | CCc1ccc(C(=O)Nc2cc(-c3ccc(F)nc3)ccc2N)nc1 [Compound I-174]
270 |  | C#Cc1ccc(C(=O)Nc2cc(-c3ccc(F)nc3)ccc2N)nc1 [Compound I-096]
 | 120 | CC(=O)Nc1cnc(C(=O)Nc2cc(-c3cnn(C)c3)ccc2N)cn1 [Compound I-309]
46 |  | CN(C)c1cnc(C(=O)Nc2cc(-c3ccc(F)nc3)ccc2N)cn1 [Compound I-178]
120 |  | CN(C)c1cnc(C(=O)Nc2cc(-n3ccc(F)c3)ccc2N)cn1 [Compound I-299]
260 |  | Nc1ccc(-c2cncs2)cc1NC(=O)c1ccc(C(F)(F)F)cn1 [Compound I-020]
140 |  | Cc1ncc(-c2ccc(N)c(NC(=O)c3ccc(-c4cnn(C)c4)cn3)c2)s1 [Compound I-032]
340 |  | Nc1ccc(-c2cncs2)cc1NC(=O)c1ccc2c(n1)CCCC2 [Compound I-082]
140 |  | Cn1cc(-c2ccc(N)c(NC(=O)c3cnc(N4CCCC4)cn3)c2)cn1 [Compound I-241]
55 |  | Cn1cc(-c2cc(C(=O)Nc3cc(-c4cncs4)ccc3N)no2)cn1 [Compound I-196]

From patent US20230119479A1, “A HISTONE DEACETYLASE INHIBITOR HAVING A NITROGEN-CONTAINING AROMATIC HETEROCYCLYL GROUP” (SHIONOGI & CO., LTD., priority 2019, published 2023)
